Experimental data reported in US7713994B2 (Wyeth LLC, priority 2005, dated 2010).
Like-named read-outs stand apart in the source and are kept apart here.

What was measured:
[1] = tested on: MCF-7; experiment: Cytotoxicity assay (SRB), MCF-7; format: cell-based; conditions: MCF-7 cells, SRB, read-out: In Vitro Cellular Activity IC50 MCF-7
Method in brief: (§1)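 Percentage survival is derived from SRB absorbance (540 nm) versus untreated cells. Exposures were 3 days, except 6 days for BT474, at 37 °C and 7% CO2.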

[2] = molecular target: T1, cyclin B/CDK1 enzyme (Homo sapiens, UniProt P06493); experiment: CDK1 ELISA kinase assay (phospho-Rb ser 795 detection); format: biochemical
T1 construct: purchased New England BioLabs; host or cells: Sf9 insect cells, recombinant baculovirus
T1 sequence (P06493 whole entry): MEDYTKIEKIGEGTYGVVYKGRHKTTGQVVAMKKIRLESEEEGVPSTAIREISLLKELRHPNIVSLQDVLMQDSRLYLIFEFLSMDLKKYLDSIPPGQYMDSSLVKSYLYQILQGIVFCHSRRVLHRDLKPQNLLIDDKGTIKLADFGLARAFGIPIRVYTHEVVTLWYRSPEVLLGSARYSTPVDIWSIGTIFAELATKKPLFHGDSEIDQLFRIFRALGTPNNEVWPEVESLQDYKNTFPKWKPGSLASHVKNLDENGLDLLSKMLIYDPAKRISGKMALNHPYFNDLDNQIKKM
T1 sequence (P14635 whole entry partner): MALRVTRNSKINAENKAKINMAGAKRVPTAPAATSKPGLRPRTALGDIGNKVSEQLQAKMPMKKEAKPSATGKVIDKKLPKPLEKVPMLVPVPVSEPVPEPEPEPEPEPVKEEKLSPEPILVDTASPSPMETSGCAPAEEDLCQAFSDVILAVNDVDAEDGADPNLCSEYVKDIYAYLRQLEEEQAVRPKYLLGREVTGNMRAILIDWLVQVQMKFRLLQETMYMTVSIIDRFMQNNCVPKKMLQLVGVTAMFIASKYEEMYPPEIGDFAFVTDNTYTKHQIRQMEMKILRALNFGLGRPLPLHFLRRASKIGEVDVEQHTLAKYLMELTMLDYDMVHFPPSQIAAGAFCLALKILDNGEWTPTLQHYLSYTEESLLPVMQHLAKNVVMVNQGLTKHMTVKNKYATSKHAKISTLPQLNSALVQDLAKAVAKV
Method in brief: (§2)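 Screening was done at 10 ug/ml compound. Each partially purified cyclin/CDK complex, produced in baculovirus-infected Sf9 cells, phosphorylated a coated GST-Rb C-terminal fragment with 200 μM ATP, and Ser795 phosphorylation was quantified by HRP-ELISA at 450 nm.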

[3] = tested on: SK-UT-1B; experiment: In Vitro Cellular Activity (Table III), SK-UT-1B; format: cell-based; conditions: SK-UT-1B cells
[4] = molecular target: T2, cyclin D1/cdk 4 enzyme (Homo sapiens, UniProt P11802); experiment: CDK4 ELISA kinase assay (phospho-Rb ser 795 detection); format: biochemical
T2 construct: made in house; host or cells: Sf9 insect cells, recombinant baculovirus
T2 sequence (P11802 whole entry, species assumed): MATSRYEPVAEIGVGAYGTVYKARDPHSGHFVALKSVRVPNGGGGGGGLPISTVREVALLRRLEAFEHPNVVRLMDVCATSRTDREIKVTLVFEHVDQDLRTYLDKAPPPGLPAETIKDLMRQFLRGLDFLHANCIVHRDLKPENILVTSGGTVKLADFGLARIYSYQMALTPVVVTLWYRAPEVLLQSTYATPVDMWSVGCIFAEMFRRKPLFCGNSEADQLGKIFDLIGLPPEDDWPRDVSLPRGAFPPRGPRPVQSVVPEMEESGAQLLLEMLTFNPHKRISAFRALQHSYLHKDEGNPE
T2 sequence (P24385 whole entry partner, species assumed): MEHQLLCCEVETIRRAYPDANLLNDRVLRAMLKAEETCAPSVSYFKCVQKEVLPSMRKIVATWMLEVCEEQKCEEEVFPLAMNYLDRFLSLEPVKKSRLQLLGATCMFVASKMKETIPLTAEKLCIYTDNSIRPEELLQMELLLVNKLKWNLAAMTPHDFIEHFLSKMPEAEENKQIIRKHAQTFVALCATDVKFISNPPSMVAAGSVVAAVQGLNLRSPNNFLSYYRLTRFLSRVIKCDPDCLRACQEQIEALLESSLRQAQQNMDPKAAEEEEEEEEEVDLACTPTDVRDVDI
Method in brief: as §2

[5] = tested on: LoVo; experiment: Cytotoxicity assay (SRB), LoVo; format: cell-based; conditions: LoVo cells, SRB, read-out: In Vitro Cellular Activity IC50 LOVO
Method in brief: as §1

[6] = tested on: HCT-116; experiment: Cytotoxicity assay (SRB), HCT-116; format: cell-based; conditions: HCT116 cells, SRB, read-out: In Vitro Cellular Activity IC50 HCT116
Method in brief: as §1

[7] = molecular target: T3, cyclin E/CDK2 enzyme (Homo sapiens, UniProt P24941); experiment: CDK2 ELISA kinase assay (phospho-Rb ser 795 detection); format: biochemical
T3 construct: made in house; host or cells: Sf9 insect cells, recombinant baculovirus
Method in brief: as §2

[8] = tested on: BT474; experiment: Cytotoxicity assay (SRB), BT474; format: cell-based
Method in brief: as §1

[9] = I.V. and P.O. Dosing in Mice; format: in vivo; conditions: for AUC(0-inf) / bioavailability: mouse, in vivo; for bioavailability: po 50 mg/kg vs i.v. 2 mg/kg
[10] = Homo sapiens, MCF7, 72 h, three days
[11] = In Vitro Enzyme Assays, read-out: CDK1 IC50
[12] = In Vitro Enzyme Assays, 200 μM ATP, read-out: CDK4 IC50
[13] = Homo sapiens, LoVo, 72 h, three days
[14] = Homo sapiens, HCT-116, 72 h, three days
[15] = In Vitro Enzyme Assays, read-out: CDK2 IC50
[16] = Homo sapiens, BT-474, 144 h, BT474 cells, SRB, 6 days; read-out: In Vitro Cellular Activity IC50 BT474
[17] = iv, 2 mg/kg, dose i.v. 2 mg/kg, read-out: aucinf obs (i.v.)
[18] = po, 50 mg/kg, dose po 50 mg/kg, read-out: aucinf obs (po)
[19] = Homo sapiens, MCF7, 72 h, 3 days
[20] = In Vitro Enzyme Assay, cyclin B/CDK1, read-out: CDK1 IC50
[21] = In Vitro Enzyme Assay, cyclin D1/cdk 4, read-out: CDK4 IC50
[22] = Homo sapiens, LoVo, 72 h, 3 days
[23] = Homo sapiens, HCT-116, 72 h, 3 days
[24] = In Vitro Enzyme Assay, cyclin E/CDK2, read-out: CDK2 IC50
[25] = Homo sapiens, BT-474, 144 h, BT474 cells, 6 days, SRB; read-out: In Vitro Cellular Activity IC50 BT474

Molecule	IC50 [1, 10]	IC50 [2, 11]	IC50 ([3]; Homo sapiens, Skut1B)	IC50 [4, 12]	IC50 [5, 13]	IC50 [6, 14]	IC50 [7, 15]	IC50 [8, 16]	also measured
O=C1NC(=O)c2ccccc2/C1=C/Nc1ccc(N2CCOCC2)cc1 [Example 6, (4Z)-4-{[(4-Morpholin-4-ylphenyl)amino]methylene}isoquinoline-1,3(2H,4H)-dione]	> 50 µM	> 29 µM	18.3 µM	> 50 µM	> 50 µM	> 50 µM	> 29 µM	> 50 µM	–
COc1ccc(/C=C2/C(=O)NC(=O)c3ccccc32)cc1OC [Example 12, (4E)-4-(3,4-dimethoxybenzylidene)isoquinoline-1,3(2H,4H)-dione]	14.5 µM	> 32 µM	> 32 µM	> 50 µM	5.4 µM	2.1 µM	> 32 µM	> 50 µM	–
O=C1NC(=O)c2ccccc2/C1=C/Nc1ccc(CN2CCOCC2)cc1 [Example 19, (4Z)-4-({[4-(Morpholin-4-ylmethyl)phenyl]amino}methylene)isoquinoline-1,3(2H,4H)-dione]	15.9 µM	> 27 µM	21.4 µM	10.7 µM	–	20 µM	21.6 µM	–	–
O=C1NC(=O)c2ccccc2/C1=C/Nc1cccc(CCN2CCCC2)c1 [Example 22, (4Z)-4-({[3-(2-Pyrrolidin-1-ylethyl)phenyl]amino}methylene)isoquinoline-1,3(2H,4H)-dione]	10 µM	–	5.4 µM	–	19 µM	11 µM	–	21 µM	–
CN(C)Cc1ccc(N/C=C2\C(=O)NC(=O)c3ccccc32)cc1 [Example 25, (4Z)-4-[({4[(Dimethylamino)methyl]phenyl}amino)methylene]isoquinolin-1,3(2H,4H)-dione]	5.6 µM	> 29 µM	16.2 µM	6.6 µM	–	11.5 µM	22.7 µM	–	–
CN1CCN(c2ccc(N/C=C3\C(=O)NC(=O)c4ccc(Br)cc43)cc2)CC1 [Example 27, (4Z)-6-Bromo-4-({[4-(4-methylpiperazin-1-yl)phenyl}amino}methylene)isoquinoline-1,3(2H,4H)-dione]	3 µM	> 50 µM	3.6 µM	1.4 µM	3.8 µM	3.1 µM	> 50 µM	3.1 µM	–
CN1CCN(c2ccc(N/C=C3\C(=O)NC(=O)c4ccc([N+](=O)[O-])cc43)cc2)CC1 [Example 33, (4Z)-6-Nitro-4-({[4-(4-methylpiperazin-1-yl)phenyl}amino}methylene)isoquinoline-1,3(2H,4H)-dione]	11 µM	7.2 µM	3.3 µM	11 µM	3.2 µM	3.3 µM	> 50 µM	5.2 µM	–
CN1CCN(c2ccc(N/C=C3\C(=O)NC(=O)c4cc(Br)ccc43)cc2)CC1 [Example 45, (4Z)-7-Bromo-4-({[4-(4-methylPiperzin-1-yl)phenyl]amino}methylene)isoquinoline-1,3(2H,4H)-dione]	18.8 µM	> 50 µM	31 µM	–	33 µM	5 µM	47 µM	19 µM	–
CN1CCN(c2ccc(N/C=C3\C(=O)NC(=O)c4ccc(-c5ccsc5)cc43)cc2)CC1 [Example 107, (4Z)-4-({[4-(4-Methylpiperazin-1-yl)phenyl]amino}methylene)-6-thien-3-ylisoquinoline-1,3(2H,4H)-dione]	2.3 µM	> 50 µM	–	0.08 µM	2.3 µM	1.4 µM	> 50 µM	2.5 µM	melting point: 224 to 226 °C; Cl_obs ([9]; dose i.v. 2 mg/kg): 37 mL/min/kg; Vss_obs ([9]; dose i.v. 2 mg/kg): 11 L/kg; HL_Lambda_z ([9]; dose po 50 mg/kg): 7.4 h; AUC(0-inf) [9, 17]: 901 ng·h/mL; AUC(0-inf) [9, 18]: 4100 ng·h/mL; bioavailability ([9]; po, 50 mg/kg): 18.2%
O=C1NC(=O)c2ccc(I)cc2/C1=C/NCc1cc(O)c(-c2ccccc2)cn1 [Example 524, (4Z)-{[(4-Hydroxy-5-phenyl-pyridin-2-ylmethyl)-amino]-methylene}-6-iodo-4H-isoquinoline-1,3-dione]	–	–	–	–	–	–	–	–	IC50 [1, 19]: 0.89 µM; IC50 [2, 20]: 27.9 µM; melting point: 292 to 293 °C (dec.); Cl_obs ([9]; dose i.v. 2 mg/kg): 35 mL/min/kg; Vss_obs ([9]; dose i.v. 2 mg/kg): 2.4 L/kg; AUC(0-inf) [9, 17]: 952 ng·h/mL; bioavailability ([9]; po, 50 mg/kg): 0%; IC50 [4, 21]: 0.04 µM; IC50 [5, 22]: 0.12 µM; IC50 [6, 23]: 0.11 µM; IC50 [7, 24]: 2.2 µM; IC50 [8, 25]: 0.03 µM
O=C1NC(=O)c2ccc(I)cc2/C1=C/NCc1cc(O)c(-c2ccoc2)cn1 [Example 527, (4Z)-{[(5-Furan-3-yl-4-hydroxy-pyridin-2-ylmethyl)-amino]-methylene}-6-iodo-4H-isoquinoline-1,3-dione]	–	–	–	–	–	–	–	–	IC50 [1, 19]: 2.7 µM; IC50 [2, 20]: 13.5 µM; melting point: 213 to 228 °C (dec.); Cl_obs ([9]; dose i.v. 2 mg/kg): 5 mL/min/kg; Vss_obs ([9]; dose i.v. 2 mg/kg): 0.5 L/kg; HL_Lambda_z ([9]; dose po 50 mg/kg): 3.4 h; AUC(0-inf) [9, 17]: 6060 ng·h/mL; AUC(0-inf) [9, 18]: 1400 ng·h/mL; bioavailability ([9]; po, 50 mg/kg): 0.9%; IC50 [4, 21]: 0.03 µM; IC50 [5, 22]: 0.49 µM; IC50 [6, 23]: 0.55 µM; IC50 [7, 24]: 2.3 µM; IC50 [8, 25]: 0.09 µM
CN1CCN(c2ccc(N/C=C3\C(=O)NC(=O)c4ccccc43)cc2)CC1 [compound 4]	5.5 µM	> 28 µM	12.7 µM	–	13 µM	9.1 µM	–	18 µM	–
O=C1NC(=O)c2ccccc2/C1=C/Nc1ccc2cn[nH]c2c1 [compound 7]	11.2 µM	> 33 µM	4.3 µM	9.5 µM	–	6.57 µM	5.6 µM	–	–
(4Z)-4-[({3-Chloro-4-{(4chlorobenzyl)oxy]phenyl}amino)methylene]isoquinoline-1,3(2H,4H-dione [Example 15]	–	–	–	–	–	–	–	–	IC50 ([1]; three days): 28 µM; IC50 [3]: 11.6 µM; IC50 ([5]; three days): 50 µM; IC50 ([6]; three days): 10.3 µM; IC50 ([8]; BT474 cells, SRB, 6 days; read-out: In Vitro Cellular Activity IC50 BT474): > 50 µM
